Read-outs that look alike come from different tables or passages of the source. Marks after values point to notes of the source that are not given here.
What was measured:
[1] = tested on: human blood platelets; experiment: ADP-induced platelet aggregation in platelet-rich plasma; format: cell-based; settings: 10 μM ADP, mean ± SD, n = 6–9
[2] = target: T1, human A2A adenosine receptor (Homo sapiens, UniProt P29274); settings: 10 μM compound; USEF; HeLa-A2A membranes; 3 nM [3H]-ZM241385
[3] = target: T1, human A2A adenosine receptor; experiment: Radioligand binding, HEK293 cells expressing human A2A receptor; settings: for percent of inhibition, A2A AR: 10 μM compound, NIH laboratory, agonist radioligand
[4] = target: T2, human A3 adenosine receptor (Homo sapiens, UniProt P0DMS8); experiment: Radioligand binding, HEK293 cells expressing human A3 receptor; settings: for percent of inhibition, A3 AR: 10 μM compound, agonist radioligand; for percent of inhibition, A3 AR / Ki: NIH laboratory, HEK293; for activity class (active / inactive) in SAR and selectivity analysis / receptor selectivity class: compounds 33–52, NIH binding data; for Ki: read-out: Ki, A3 AR, [125I]-N6-(4-amino-3-iodobenzyl)adenosine-5′-N-methyluronamide
T2 sequence (P0DMS8 1-318): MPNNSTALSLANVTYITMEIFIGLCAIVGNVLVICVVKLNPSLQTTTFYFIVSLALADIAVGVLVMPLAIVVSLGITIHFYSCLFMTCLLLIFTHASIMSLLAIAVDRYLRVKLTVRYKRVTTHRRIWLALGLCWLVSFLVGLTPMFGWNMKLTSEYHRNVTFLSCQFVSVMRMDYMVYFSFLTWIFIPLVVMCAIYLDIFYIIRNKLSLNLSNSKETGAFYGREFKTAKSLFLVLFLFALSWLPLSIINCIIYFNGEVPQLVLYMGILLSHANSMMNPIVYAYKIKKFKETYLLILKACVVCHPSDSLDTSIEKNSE

[5] = target: T3, human A1 adenosine receptor (Homo sapiens, UniProt P30542); experiment: Radioligand binding, HEK293 cells expressing human A1 receptor; settings: for percent of inhibition, A1 AR: 10 μM compound
T3 sequence (P30542 1-326): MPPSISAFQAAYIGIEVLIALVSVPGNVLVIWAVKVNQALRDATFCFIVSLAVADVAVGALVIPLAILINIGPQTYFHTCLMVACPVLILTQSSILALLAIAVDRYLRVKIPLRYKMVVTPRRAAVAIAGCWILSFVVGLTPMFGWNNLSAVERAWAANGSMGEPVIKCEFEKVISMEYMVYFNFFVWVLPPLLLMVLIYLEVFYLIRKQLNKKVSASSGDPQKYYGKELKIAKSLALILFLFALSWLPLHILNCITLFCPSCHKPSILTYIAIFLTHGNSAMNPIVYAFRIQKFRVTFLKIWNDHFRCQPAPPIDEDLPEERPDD

[6] = target: T4, human A2B adenosine receptor (Homo sapiens, UniProt P29275); settings: USEF, HEK-A2B membranes, 25 nM [3H]-DPCPX; for percent of inhibition, A2B AR: 10 μM compound
T4 sequence (P29275 1-332): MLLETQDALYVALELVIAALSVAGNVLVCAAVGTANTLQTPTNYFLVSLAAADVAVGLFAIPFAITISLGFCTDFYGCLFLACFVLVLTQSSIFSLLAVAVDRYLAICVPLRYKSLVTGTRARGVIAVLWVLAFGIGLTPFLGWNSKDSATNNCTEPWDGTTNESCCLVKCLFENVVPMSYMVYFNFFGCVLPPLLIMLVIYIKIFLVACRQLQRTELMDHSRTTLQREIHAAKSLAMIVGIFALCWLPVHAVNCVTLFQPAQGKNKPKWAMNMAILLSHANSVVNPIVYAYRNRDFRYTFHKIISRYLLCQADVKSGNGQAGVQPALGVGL

[7] = target: T2, human A3 adenosine receptor; settings: for percent of inhibition, A3 AR: 10 μM compound, USEF, HeLa-A3 membranes, 10 nM [3H]-NECA
[8] = target: T3, human A1 adenosine receptor; settings: 10 μM compound; USEF; CHO-A1 membranes; 1 nM [3H]-DPCPX
[9] = NIH laboratory, HEK293, [3H]-N6-R-phenylisopropyladenosine

T1 sequence (P29274 whole entry): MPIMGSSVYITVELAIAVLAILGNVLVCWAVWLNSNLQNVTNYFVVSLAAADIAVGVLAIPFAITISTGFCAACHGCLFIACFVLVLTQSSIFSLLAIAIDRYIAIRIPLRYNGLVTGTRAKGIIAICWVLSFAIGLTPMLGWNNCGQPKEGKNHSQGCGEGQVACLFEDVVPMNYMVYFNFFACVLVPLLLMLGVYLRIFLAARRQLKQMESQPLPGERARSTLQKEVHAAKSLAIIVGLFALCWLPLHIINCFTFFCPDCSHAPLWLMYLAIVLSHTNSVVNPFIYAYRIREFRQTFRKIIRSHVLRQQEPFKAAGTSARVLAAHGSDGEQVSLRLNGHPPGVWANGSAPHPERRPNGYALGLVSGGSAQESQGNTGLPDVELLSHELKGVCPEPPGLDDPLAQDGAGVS

Row | Compound | percent of inhibition, A2A AR [3] [%] | percent of inhibition, A3 AR [4] [%] | percent of inhibition, A1 AR [5, 9] [%] | activity class (active / inactive) in SAR and selectivity analysis [4] | receptor selectivity class [4] | further results
1 | N^6-[3-(1,12-dicarba-closo-dodecaboran-1-yl)propyl]-2-chloroadenosine [Compound 23] | – | – | – | – | – | area under the aggregation curve, ADP-induced platelet aggregation ([1]; 10 μM compound): 715.3 ± 85.8 arbitrary units; area under the aggregation curve, ADP-induced platelet aggregation ([1]; 50 μM compound): 657.0 ± 67.2 arbitrary units; percent of inhibition, A2A AR [2]: 1 ± 1 %^a
2 | 2-ethyl-(1,12-dicarba-closo-dodecaboran-2-yl)arabinoadenosine [Compound 49] | 12 ± 14 | 25 ± 8 | 27 ± 9 | – | – | –
3 | Nc1nc(CCc2ccccc2)nc2c1ncn2[C@@H]1O[C@H](CO)[C@@H](O)[C@H]1O [Compound 46] | – | – | – | inactive | not selective | –
4 | 8-[2-(1,12-dicarba-closo-dodecaboran-1-yl)ethynyl] adenosine [Compound 33] | 17.1 ± 8 | 48 ± 12 | 29 ± 7 | inactive | – | –
5 | 2-ethynyl-(1,12-dicarba-closo-dodecaboran-2-yl) arabinoadenosine [Compound 47] | 17 ± 2.7 | – | 15 ± 1 | active | A3 selective | Ki [4]: 4.39 ± 2.02 µM
6 | Nc1ncnc2c1nc(C#Cc1ccccc1)n2[C@H]1C[C@H](O)[C@@H](CO)O1 [Compound 44] | – | – | – | active | not selective | –
7 | Nc1ncnc2c1nc(CCc1ccccc1)n2[C@@H]1O[C@H](CO)[C@@H](O)[C@H]1O [Compound 36, 8-(2-phenylethyl)adenosine] | – | – | – | inactive | – | –
8 | Nc1nc(C#Cc2ccccc2)nc2c1ncn2[C@@H]1O[C@H](CO)[C@@H](O)[C@H]1O [Compound 42, 2-Phenylethynyladenosine] | – | – | – | active | not selective | –
9 | 8-[2-(1,12-dicarba-closo-dodecaboran-1-yl)ethyl]-adenosine [Compound 35] | 18 ± 4 | 9 ± 13 | 16 ± 7 | inactive | – | area under the aggregation curve, ADP-induced platelet aggregation ([1]; 10 μM compound): 665.7 ± 86.8 arbitrary units; area under the aggregation curve, ADP-induced platelet aggregation ([1]; 50 μM compound): 682.3 ± 17.4 arbitrary units
10 | Nc1ncnc2c1nc(CCc1ccccc1)n2[C@H]1C[C@H](O)[C@@H](CO)O1 [Compound 52] | – | – | – | inactive | – | –
11 | N^6-[3-(1,12-dicarba-closo-dodecaboran-1-yl)propyl]-2-chloro-2′-deoxyadenosine [Compound 27] | – | – | – | – | – | percent of inhibition, A2A AR [2]: 1 ± 1 %^a; Ki ([6]; read-out: Ki, A2B AR): 4.67 µM; percent of inhibition, A3 AR [7]: 10 ± 3 %^a; percent of inhibition, A1 AR [8]: 25 ± 1 %^a
12 | Nc1nc(CCc2ccccc2)nc2c1ncn2[C@@H]1O[C@H](CO)[C@@H](O)[C@@H]1O [Compound 50] | – | – | – | inactive | – | –
13 | Nc1ncnc2c1nc(C#Cc1ccccc1)n2[C@@H]1O[C@H](CO)[C@@H](O)[C@H]1O [Compound 34, 8-(2-phenylethynyl)adenosine] | – | – | – | active | A3 selective | inhibition at 10 µM ([5]; read-out: percent of inhibition, A1 AR): 11 ± 3%
14 | Nc1nc(C#Cc2ccccc2)nc2c1ncn2[C@@H]1O[C@H](CO)[C@@H](O)[C@@H]1O [Compound 48] | – | – | – | active | A3 selective | –
15 | N^6-[3-(1,12-Dicarba-closo-dodecaboran-1-yl)propyl]adenosine [Compound 39] | 0 ± 1 | 0 ± 12 | 32 ± 1 | – | – | area under the aggregation curve, ADP-induced platelet aggregation ([1]; 10 μM compound): 678.4 ± 55.7 arbitrary units; area under the aggregation curve, ADP-induced platelet aggregation ([1]; 50 μM compound): 658.0 ± 46.8 arbitrary units
16 | N^6-[(1,12-dicarba-closo-dodecaboran-1-yl)prop-3-yl]-5′-ethylcarbamoyl adenosine [Compound 17] | – | – | – | – | – | area under the aggregation curve, ADP-induced platelet aggregation ([1]; 10 μM compound): 646.2 ± 58.6 arbitrary units; area under the aggregation curve, ADP-induced platelet aggregation ([1]; 50 μM compound): 639.5 ± 64.7 arbitrary units; percent of inhibition, A2A AR [2]: 1 ± 1 %^a; percent of inhibition, A2B AR [6]: 4 ± 4 %^a; percent of inhibition, A3 AR [7]: 34 ± 4 %^a; activity class (active / inactive) in selectivity analysis ([7]; N6 carborane derivatives, USEF binding data): inactive; percent of inhibition, A1 AR [8]: 18 ± 3 %^a
17 | N^6-(3-phenylpropyl)-2-chloro-2′-deoxyadenosine [Compound 28] | – | – | – | – | – | percent of inhibition, A2A AR [2]: 14 ± 2 %^a; percent of inhibition, A2B AR [6]: 1 ± 1 %^a
18 | 2-Ethynyl-(1,12-dicarba-closo-dodecaboran-1-yl)adenosine [Compound 41] | – | – | – | active | not selective | Ki ([3]; read-out: Ki, A2A AR, NIH laboratory, [3H]-2-[p-(2-carboxyethyl)phenyl-ethylamino]-5′-N-ethylcarboxamidoadenosine): 3.07 ± 0.53 µM; Ki [4]: 0.206 ± 0.031 µM; Ki ([5]; read-out: Ki, A1 AR, NIH laboratory, HEK293, [3H]-N6-R-phenylisopropyladenosine): 2.87 ± 1.69 µM
19 | 8-[2-(1,12-dicarba-closo-dodecaboran-1-yl)ethynyl]-2′-deoxyadenosine [Compound 43] | 10 ± 5 | 1 ± 8 | 6 ± 6 | inactive | – | –
20 | 2′-O-(1,12-dicarba-closo-dodecaboran-1-yl)propyleneoxymethyl]-adenosine [Compound 37] | 7 ± 2 | 19 ± 14 | 6 ± 10 | – | – | area under the aggregation curve, ADP-induced platelet aggregation ([1]; 10 μM compound): 661.1 ± 61.3 arbitrary units; area under the aggregation curve, ADP-induced platelet aggregation ([1]; 50 μM compound): 616.0 ± 24.7 arbitrary units
